# Tested on: IL-2 production
# Assay: Inhibition of IL-2 production in PHA-activated Jurkat cells (ELISA)
# Assay type: cell-based
# Conditions: Homo sapiens, 20 h, PHA 2.5 μg/mL, IL-2 ELISA, values given as ranges
# Experimental: Jurkat cells were placed in a 96 well plate (0.5 million cells per well in 1% FBS medium) then a test compound of this invention was added at different concentrations. After 10 minutes, the cells were activated with PHA (final concentration 2.5 μg/mL) and incubated for 20 hours at 37° C. under CO2. The final volume was 200 μL. Following incubation, the cells were centrifuged and the supernatants collected and stored at −70° C. prior to assaying for IL-2 production. A commercial ELISA kit (IL-2 Eli-pair, Diaclone Research, Besancon, France) was used to detect production of IL-2, from which dose response curves were obtained. The IC50 value was calculated as the concentration at which 50% of maximum IL-2 production after stimulation was inhibited versus a non-stimulation control. Inhibition of other cytokines, such as IL-4, IL-5, IL-13, GM-CSF, TNF-α, and INF-γ, can be tested in a similar manner using a commercially available ELISA kit for each cytokine.
row,Structure (SMILES),IC50 [nM]
1,Cc1nccn1-c1ccc2c(c1)-c1sc(C(=O)Nc3c(F)cccc3F)nc1CCC2 [Compound 115],250 to 500
2,O=C(Nc1nc2c(s1)CCCc1ccc(Br)cc1-2)c1c(F)cccc1F [Compound 43],> 1000
3,Cc1cnccc1NC(=O)c1nc2c(s1)-c1cc(-n3ccnc3)ccc1CCC2 [Compound 132],100 to 250
4,O=C(Nc1ccc(F)cc1F)c1nc2c(s1)-c1cc(-n3ccnc3)ccc1CCC2 [Compound 122],100 to 250
5,COc1ccc2c(c1)CCCc1sc(NC(=O)c3c(F)cccc3F)nc1-2 [Compound 42],> 1000
6,O=C(Nc1c(F)cccc1F)c1nc2c(s1)-c1cc(-n3cnnc3)ccc1CCC2 [Compound 121],30 to 100
7,O=C(Nc1cnc2c(n1)CCCC1=C2CN(c2nccs2)CC1)c1c(F)cccc1F [Compound 91],30 to 100
8,O=C(Nc1ccc(F)c(F)c1F)c1nc2c(s1)-c1cc(-n3ccnc3)ccc1CCC2 [Compound 124],250 to 500
9,O=C(Nc1c(F)cc(F)cc1F)c1nc2c(s1)-c1cc(-n3ccnc3)ccc1CCC2 [Compound 130],30 to 100
10,O=C(Nc1c(F)cccc1F)c1cnc2c(c1)CCCc1ccc(-c3cccnc3)cc1-2 [Compound 45],100 to 250
11,Cc1nc2c(cc1C(=O)Nc1c(F)cccc1F)CCCc1ccc(-c3cccnc3)cc1-2 [Compound 48],100 to 250

# Further lines, results first:
row,IC50 [nM],Structure (SMILES)
1,≤ 30,O=C(Nc1c(F)cccc1F)c1cc2c(s1)-c1cc(-c3cccnc3)ccc1CCC2 [Compound 2]
2,30 to 100,Cc1cn(-c2ccc3c(c2)-c2sc(C(=O)Nc4c(F)cccc4F)nc2CCC3)cn1 [Compound 117]
3,≤ 30,O=C(Nc1c(F)cccc1F)c1nc2c(s1)-c1cc(-n3ccnc3)ccc1CCC2 [Compound 113]
4,≤ 30,CCc1cn(-c2ccc3c(c2)-c2ncc(NC(=O)c4c(F)cccc4F)nc2CCC3)cn1 [Compound 134]
5,≤ 30,O=C(Nc1c(F)ccc(F)c1F)c1nc2c(s1)-c1cc(-n3ccnc3)ccc1CCC2 [Compound 126]
6,≤ 30,O=C(Nc1c(F)cccc1F)c1cc2c(s1)-c1cc(Br)ccc1CCC2 [Compound 1]

# Source: patent publication US20110052643A1, “COMPOUNDS FOR INFLAMMATION AND IMMUNE-RELATED USES” (Synta Pharmaceuticals Corp., priority 2008, published 2011)
